Data from patent US12637472B2, “Benzimidazole heteroatom-containing spiro compound and medicinal use thereof” (Changzhi University, priority 2023, dated 2026).
Like-named read-outs stand apart in the source and are kept apart here.

Key:
Format in all cases: cell-based
[1] = test system: human colon cancer cells HCT116; assay: MTT in vitro cell proliferation inhibition experiment, HCT116; settings: 48 h contact between compound and cell, read-out: Antiproliferative activity (IC50, μM) HCT116
Procedure: (§1) Human liver tumor cells HepG2, human colon cancer cells HCT116, and human gastric adenocarcinoma cells AGS were purchased from the Institute of Basic Medical Sciences, Chinese Academy of Medical Sciences. The cells each were preserved and passaged in the laboratory of the present disclosure according to respective cultivation data. Each cell line was routinely inoculated in a 50 mL cell culture flask, and cultivated with a 10% fetal bovine serum-containing DMEM/IRP-1640 medium at 37° C., 5% CO2, and 100% humidity, where the medium was changed daily. When growing to a confluency of 80% to 90%, cells were digested with a mixture of trypsin and EDTA and passaged according to 1:3.
(§2) An in vitro cell activity and proliferation inhibition experiment was conducted by an MTT method to investigate an impact of a target compound on a survival activity of each cell. Cells at a logarithmic growth phase were inoculated at 5×10^3 cells (100 μL)/well in a 96-well culture plate and cultivated for 24 h, and then compound solutions with different concentrations prepared in advance were added (100 μL) to the plate. At least 3 replicate wells were set for each concentration. A solvent control group without a compound and a blank control group without a cell were set. Edge wells each were filled with 200 μL of sterilized water. […] A liquid in each well was completely removed carefully, 150 μL of DMSO was added to each well, the plate was gently shaken on a microshaker for 10 min to make a purple crystal fully dissolved, and then an absorbance value was determined at 570 nm by a microplate reader. With a cell viability of the solvent control group without a compound as 100%, a cell survival rate was calculated as follows: a cell survival rate=(an absorbance value of a compound group−an absorbance value of the blank control group)/(an absorbance value of the control group−an absorbance value of the blank control group)×100%. A half-maximal inhibitory concentration (IC50) of a compound for a cell was calculated by the Graphpad Prism 5 software.

[2] = test system: human gastric adenocarcinoma cells AGS; assay: MTT in vitro cell proliferation inhibition experiment, AGS; settings: MTT method, 48 h contact between compound and cell, read-out: Antiproliferative activity (IC50, μM) AGS
Procedure: as §1, §2

[3] = test system: Human liver tumor cells HepG2; assay: MTT in vitro cell proliferation inhibition experiment, HepG2; settings: MTT method, 48 h contact between compound and cell, read-out: Antiproliferative activity (IC50, μM) HepG2
Procedure: as §1, §2

[4] = Homo sapiens, HCT-116, MTT method

| SMILES | IC50 [1, 4] [µM] | IC50 ([2]; Homo sapiens) [µM] | IC50 ([3]; Homo sapiens) [µM] | IC50 ([1]; MTT method) [µM] | IC50 [2] [µM] | IC50 [3] [µM] |
| --- | --- | --- | --- | --- | --- | --- |
| Cc1ccc(C2C(C(C)C)NC3(C(=O)c4ccccc4C3=O)C2C(=O)c2nc3ccccc3[nH]2)cc1 (stereo not drawn) [Compound 28, 3-(1H-benzimidazol-2-carbonyl)-5-isopropyl-4-p-tolylspiro[inden-2,2′-pyrrolidine]-1,3-dione] | 4.56 | 2.98 | 3.45 |  |  |  |
| CCOc1ccc(C2C(c3c[nH]c4ccccc34)NC3(C(=O)c4ccccc4C3=O)C2C(=O)c2nc3ccccc3[nH]2)cc1 (stereo not drawn) [Compound 47] | 39.8 | 38 | 34.6 |  |  |  |
| CC(C)C1NC2(C(=O)c3ccccc3C2=O)C(C(=O)c2nc3ccccc3[nH]2)C1c1ccc(Br)cc1 (stereo not drawn) [Compound 32, 3-(1H-benzimidazol-2-carbonyl)-4-(4-bromophenyl)-5-isopropylspiro[inden-2,2′-pyrrolidine]-1,3-dione] | > 100 | > 100 | 66.7 |  |  |  |
| O=C(c1nc2ccccc2[nH]1)C1C(c2cccc(Br)c2)C(c2c[nH]c3ccccc23)NC12C(=O)c1ccccc1C2=O (stereo not drawn) [Compound 46, 3-(1H-benzimidazol-2-carbonyl)-4-(3-bromophenyl)-5-(1H-indol-3-yl)spiro[inden-2,2′-pyrrolidine]-1,3-dione] | 18.4 | 21.4 | 12.2 |  |  |  |
| CSCCC1NC2(C(=O)c3ccccc3C2=O)C(C(=O)c2nc3ccccc3[nH]2)C1C1CCCCC1 (stereo not drawn) [Compound 33, 3-(1H-benzimidazol-2-carbonyl)-4-cyclohexyl-5-(methylthio)ethylspiro[inden-2,2′-pyrrolidine]-1,3-dione] | 15.5 | 9.77 | 12.5 |  |  |  |
| CC(C)CC1NC2(C(=O)c3ccccc3C2=O)C(C(=O)c2nc3ccccc3[nH]2)C1c1ccc(Cl)cc1 (stereo not drawn) [Compound 11, 3-(1H-benzimidazol-2-carbonyl)-4-(4-chlorophenyl)-5-isobutylspiro[inden-2,2′-pyrrolidine]-1,3-dione] | 30.3 | > 100 | > 100 |  |  |  |
| CCC(C)C1NC2(C(=O)c3ccccc3C2=O)C(C(=O)c2nc3ccccc3[nH]2)C1c1cccc(Br)c1 (stereo not drawn) [Compound 22, 3-benzimidazol-2-carbonyl-4-(3-bromophenyl)-5-sec-butylspiro[inden-2,2′-pyrrolidine]-1,3-dione] | 5.67 | 4.78 | 3.45 |  |  |  |
| CSCCC1NC2(C(=O)c3ccccc3C2=O)C(C(=O)c2nc3ccccc3[nH]2)C1c1ccc(C)cc1 (stereo not drawn) [Compound 36, 3-(1H-benzimidazol-2-carbonyl)-5-(2-methylthio)ethyl-4-p-tolylspiro[inden-2,2′-pyrrolidine]-1,3-dione] | 15.5 | 9.78 | 13.5 |  |  |  |
| CC(C)C1NC2(C(=O)c3ccccc3C2=O)C(C(=O)c2nc3ccccc3[nH]2)C1c1ccc(Cl)cc1 (stereo not drawn) [Compound 27, 3-(1H-benzimidazol-2-carbonyl)-4-(4-chlorophenyl)-5-isopropylspiro[inden-2,2′-pyrrolidine]-1,3-dione] | > 100 | 90.1 | > 100 |  |  |  |
| CCOc1ccc(C2C(c3c[nH]c4ccccc34)NC3(C(=O)c4ccccc4C3=O)C2C(=O)c2nc3ccccc3[nH]2)cc1OCC (stereo not drawn) [Compound 45, 3-(1H-benzimidazol-2-carbonyl)-3,4-diethoxyphenyl-5-(1H-indol-3-yl)spiro[inden-2,2′-pyrrolidine]-1,3-dione] | 56.4 | > 100 | > 100 |  |  |  |
| CCOc1ccc(C2C3CCCN3C3(C(=O)c4ccccc4C3=O)C2C(=O)c2nc3ccccc3[nH]2)cc1OCC (stereo not drawn) [Compound 5, 2-(1H-benzimidazol-2-carbonyl)-3,4-diethoxyphenyl-1,2,5,6,7,7a-hexahydrospiroinden-2,3-pyrrolizine-1,3-dione] | 17.4 | 36.9 | 80.7 |  |  |  |
| O=C(c1nc2ccccc2[nH]1)C1C(C2CCCCC2)C2CCCN2C12C(=O)c1ccccc1C2=O (stereo not drawn) [Compound 1, 2-(1H-benzimidazol-2-carbonyl)-1-cyclohexyl-1,2,5,6,7,7a-hexahydrospiroinden-2,3-pyrrolizine-1,3-dione] | > 100 | 40.8 | > 100 |  |  |  |
| COc1ccc(C2=N[C@@H](c3ccc(Cl)cc3)[C@@H](c3ccc(Cl)cc3)N2C(=O)N2CCNC(=O)C2)c(OC(C)C)c1 [Nutlin-3a, reference compound] |  |  |  | 21.7 | 21.4 | 11 |
| CC(C)C1NC2(C(=O)c3ccccc3C2=O)C(C(=O)c2nc3ccccc3[nH]2)C1c1cccc(Br)c1 (stereo not drawn) [Compound 30, 3-(1H-benzimidazol-2-carbonyl)-4-(3-bromophenyl)-5-isopropylspiro[inden-2,2′-pyrrolidine]-1,3-dione] | 3.42 | 2.98 | 2.34 |  |  |  |
| CCOc1ccc(C2C(CC(C)C)NC3(C(=O)c4ccccc4C3=O)C2C(=O)c2nc3ccccc3[nH]2)cc1 (stereo not drawn) [Compound 15, 3-(1H-benzimidazol-2-carbonyl)-4-(4-ethoxyphenyl)-5-isobutylspiro[inden-2,2′-pyrrolidine]-1,3-dione] | 28.8 | 85.7 | > 100 |  |  |  |
| CCC(C)C1NC2(C(=O)c3ccccc3C2=O)C(C(=O)c2nc3ccccc3[nH]2)C1c1ccc(Br)cc1 (stereo not drawn) [Compound 24, 3-(1H-benzimidazol-2-carbonyl)-4-(4-bromophenyl)-5-sec-butylspiro[inden-2,2′-pyrrolidine]-1,3-dione] | 45.8 | 3.67 | 67.8 |  |  |  |
| CCC(C)C1NC2(C(=O)c3ccccc3C2=O)C(C(=O)c2nc3ccccc3[nH]2)C1c1ccc(Cl)cc1 (stereo not drawn) [Compound 19, 3-(1H-benzimidazol-2-carbonyl)-5-sec-butyl-4-(4-chlorophenyl)spiro[inden-2,2′-pyrrolidine]-1,3-dione] | 42.1 | 87.5 | > 100 |  |  |  |
| CC(C)CC1NC2(C(=O)c3ccccc3C2=O)C(C(=O)c2nc3ccccc3[nH]2)C1C1CCCCC1 (stereo not drawn) [Compound 9, 3-(1H-benzimidazol-2-carbonyl)-4-cyclohexyl-5-isobutylspiro[inden-2,2′-pyrrolidine]-1,3-dione] | 20.3 | 69 | > 100 |  |  |  |
| CSCCC1NC2(C(=O)c3ccccc3C2=O)C(C(=O)c2nc3ccccc3[nH]2)C1c1ccc(Cl)cc1 (stereo not drawn) [Compound 35, 3-(1H-benzimidazol-2-carbonyl)-4-(4-chlorophenyl)-5-(2-methylthio)ethylspiro[inden-2,2′-pyrrolidine]-1,3-dione] | 42.7 | 45.8 | 40.5 |  |  |  |
| Cc1ccc(C2C(CC(C)C)NC3(C(=O)c4ccccc4C3=O)C2C(=O)c2nc3ccccc3[nH]2)cc1 (stereo not drawn) [Compound 12, 3-(1H-benzimidazol-2-carbonyl)-5-isobutyl-4-p-tolylspiro[inden-2,2′-pyrrolidine]-1,3-dione] | 14.1 | 42.7 | > 100 |  |  |  |
| O=C(c1nc2ccccc2[nH]1)C1C(c2ccc(Cl)c(F)c2)C(c2c[nH]c3ccccc23)NC12C(=O)c1ccccc1C2=O (stereo not drawn) [Compound 42, 3-(1H-benzimidazol-2-carbonyl)-4-(4-chloro-3-fluorophenyl)-5-(1H-indol-3-yl)spiro[inden-2,2′-pyrrolidine]-1,3-dione] | 4.78 | 3.01 | 3.45 |  |  |  |
| O=C(c1nc2ccccc2[nH]1)C1C(c2ccc(Cl)cc2)C(c2c[nH]c3ccccc23)NC12C(=O)c1ccccc1C2=O (stereo not drawn) [Compound 43, 3-(1H-benzimidazol-2-carbonyl)-4-(4-chlorophenyl)-5-(1H-indol-3-yl)spiro[inden-2,2′-pyrrolidine]-1,3-dione] | 55.5 | 39.7 | 34.6 |  |  |  |
| CCOc1ccc(C2C(CCSC)NC3(C(=O)c4ccccc4C3=O)C2C(=O)c2nc3ccccc3[nH]2)cc1 (stereo not drawn) [Compound 39, 3-(1H-benzimidazol-2-carbonyl)-4-(4-ethoxyphenyl)-5-(2-methylthio)ethylspiro[inden-2,2′-pyrrolidine]-1,3-dione] | > 100 | > 100 | > 100 |  |  |  |
| O=C(c1nc2ccccc2[nH]1)C1C(c2ccc(Cl)cc2)C2CCCN2C12C(=O)c1ccccc1C2=O (stereo not drawn) [Compound 3, 2-(1H-benzimidazol-2-carbonyl)-1-4-chlorophenyl-1,2,5,6,7,7a-hexahydrospiroinden-2,3-pyrrolizine-1,3-dione] | 26.2 | 30 | > 100 |  |  |  |
| O=C(c1nc2ccccc2[nH]1)C1C(c2ccc(Br)cc2)C(c2c[nH]c3ccccc23)NC12C(=O)c1ccccc1C2=O (stereo not drawn) [Compound 48] | 37.8 | 44.2 | 40.2 |  |  |  |
